Test results taken from PMC5373622, “Screening for AMPA receptor auxiliary subunit specific modulators” (PLoS ONE, 2017).
“And” between values parts separate entries of the source, which are not always exact repeats. Identical values can stand only once. Like-named read-outs stand apart in the source and are kept apart here.

Legend:
[1] = test system: GluA2 alone; conditions: published value; cited from earlier work
[2] = target: GluA2flip(Q)-GSG1L (A2Q-GSG cells) (Homo sapiens, UniProt P42262); assay: Calcium flux (Fluo-8) compound CRC assay on A2Q-GSG cells
Source text: (§1) Cell lines used in the calcium flux assay were GluA2flip(Q)-FLAG + GSG1L-1D4 pTREt-Va dual expression in TetON HEK cell clone #20 (A2Q-GSG), GluA2flip(Q)-FLAG + CNIH3-1D4 pTREt-Va dual expression in TetON HEK cell clone #8 (A2Q-C3), GluA2flip(Q)-FLAG pTREt-Va in TetON HEK cell clone #5 (A2Q), and tethered GluA2flip(Q)-FLAG-stargazin [28] in pTREt-Va dual expression in TetON HEK cell clone #13 (A2Q-stg) (Summarized in Table 1).
(§2) Compounds that were selected as hits using the VSD assay were subsequently screened against the calcium permeable A2Q-stg and A2Q-C3 cell lines in a glutamate potency fold-shift assay using the calcium sensing dye Fluo-8 (AAT Bioquest cat #21080). This assay is used to measure how pretreatment with compounds shifts the EC50 of glutamate on A2Q-stg and A2Q-C3 cells. 30 μM of each compound was pre-incubated with the cells for 120 secs and then an 11-point glutamate CRC from 4 mM to 10 pM was applied to the cells for 180 sec. […] Greiner 384-pp round-bottom plates containing glutamate solutions were dispensed by hand using a multi-channel pipet at 5X final concentration. […] Sodium butyrate and DOX were added to the cells at 1 mM and 5 μg/mL, respectively, 24 hours before screening. A2Q-stg cells were induced with 10 μg/mL DOX. Cells were incubated O/N and washed 4 times in low calcium buffer on an ELX405CW liquid aspirator and dispenser (BioTek). Buffer was left in the wells and an equal amount of 4.6 μM (2X) Fluo-8 (AAT Bioquest cat #21080) solution with 2.5 mM probenecid was added and incubated on the cells at room temperature for 40 minutes. Probenecid was added to block dye efflux from the cells [29]. Dye was washed off with low calcium buffer using the ELX405CW (BioTek) and plates were immediately inserted into the FDSS (Hamamatsu). Fluorescence signal was collected at 1 Hz using Ex. 480±20 nm/Em. 540±40 nm. Baseline signal was collected for 10 seconds followed by addition of 20 μl of 2X compound for a final concentration of 30 μM. After 290 seconds, 10 μl of a 5X glutamate solution in high calcium buffer (10 mM HEPES, pH 7.4, 140 mM NaCl, 5 mM KCl, 1 mM MgCl2, 9 mM CaCl2, and 10 mM glucose) was added for 180 seconds.
(§3) These compound CRCs were applied to the cells 2 minutes before a 1mM glutamate stimulation. […] Normalized FDSS traces were curve fit to CRCs using the initial GLUslope (GLUslope1) in a 3–6 sec window after glutamate application. CRCs were also plotted for the traces’ area under the curve (AUC) in the GLUmaxmin window. […] Compounds were plotted as %max GLUslope against log [compound] and fit to a four-parameter logistical model as in the VSD.
(§4) Cells were loaded with Fluo-8 and excess dye was washed out. After 120 secs of pre-incubation with compound at concentrations ranging from 30 μM to 30 nM (Fig 4Bi), 1 mM glutamate was added (Fig 4Bii). In the calcium assay, 250 μM was used as the maxGLU dose because the GLUslope1 values decreased at higher concentrations of glutamate, making it the dose with the maximal GLUslope1 response. […] We measured GLUslope in three consecutive time windows, referred to as GLUslope1-3, because three phases were clearly detectable (Fig 4C). The final CRC curves were calculated from GLUslope1, obtained from the first 3–6 sec window.
(§5) The final compound CRC curves were calculated from GLUslope1. […] The AUC measures the accumulation of calcium instead of gating and sometimes produced a CRC fit when GLUslope1 could not derive an EC50 value.

[3] = target: GluA2flip(R)-stargazin (A2R-stg TetON HEK293 cells) (Homo sapiens, UniProt P42262, Q607R); assay: Voltage-sensitive dye (VSD) assay (primary screen, counter-screen, CRC) on A2R-stg cells; conditions: for CMPDmaxmin: max-min 8-100 s, only compound present; for BaselineReturn: max 250-255 s minus min 0-5 s; for Glumaxmin: max-min normalized value 301-380 s; for Glumaxmin / GluSlope: compound and glutamate present; for GluSlope: slope 310-315 s
[4] = target: GluA2flip(R)-CNIH3 (A2R-C3 TetON HEK293 cells) (Homo sapiens, UniProt P42262, Q607R); assay: VSD assay (counter-screen, CRC) on A2R-C3 cells; conditions: for CMPDmaxmin: max-min 8-100 s; for BaselineReturn: max 250-255 s minus min 0-5 s; for Glumaxmin: max-min normalized value 301-380 s
Source text: Cell lines used in the VSD assays were TetON HEK293 cells. This was the parental cell line for all stable cell lines created. We used GluA2flip(R) TetON HEK cell clone #4 that doxycycline (DOX) dependently expresses GluA2flip(R) (A2R). The A2R cells were used as the base cell line to derive cell lines that co-express auxiliary subunits.
Greiner 384-pp round-bottom plates containing glutamate for the second add were dispensed by hand using a multi-channel pipet at 5X final concentration. A2R-stg cells were plated in 384-well BD PureCoat amine-coated plates (Corning Life Sciences) at 16k cells/well in DMEM medium supplemented with 10% heat-inactivated FBS and 100U/mL PenStrep antibiotic. […] Cells were incubated overnight (O/N) and washed 4 times in HBSS containing 20 mM HEPES, pH 7.4, on an ELX405CW liquid aspirator and dispenser (BioTek). Buffer was left in the wells and an equal amount of 2X FLIPR dye solution was added and incubated on the cells at room temperature for 45 min. Fluorescence signal was collected at 1 Hz using Ex. 480±20 nm/Em. 540±40 nm on a Hamamatsu Functional Drug Screening System 6000 (FDSS). Baseline signal was collected for 10 seconds followed by addition of 10 μl of 5X compound for a final concentration of 10 μM.
This assay was carried out in the same way as the VSD screening assay except a 10-point concentration curve, from 40 μM to 10 nM, was plated in triplicate for each compound on a single 384-well plate. Data were summarized by plotting them as %max GLUslope against log [compound] that was fit to a four-parameter logistical model. %max GLUslope is defined as a normalized GLUslope expressed as a percentage of the mean maximum GLUslope, defined as 100, where background mean vehicle control (VHLslope) were subtracted from both values on a per plate basis. Thus, %max GLU slope = (GLUslope-mean VHLslope/mean maxGLUslope-mean VHLslope).

[5] = target: T1, GluA2flip(Q) (A2Q cells) (Homo sapiens, UniProt P42262); assay: Calcium flux (Fluo-8) compound CRC assay on A2Q cells; format: cell-based; conditions: CRC from GLUslope1; 1 mM glutamate; PAM; read-out: EC50 Ca2+ Sensing, A2Q
T1 construct: FLAG (C); expressed in transfected cells

[6] = target: GluA2flip(Q)-CNIH3 (A2Q-C3 cells) (Homo sapiens, UniProt P42262); assay: Calcium flux (Fluo-8) compound CRC assay on A2Q-C3 cells
Source text: as §1, §2, §3, §4, §5

[7] = test system: GluA1-stargazin; set-up: method as in PMID 16785437; conditions: published value; cited from earlier work

GluA2flip(R)-stargazin (A2R-stg TetON HEK293 cells), sequence (P42262 25-883 isoform P42262-2 Q607R limits assumed): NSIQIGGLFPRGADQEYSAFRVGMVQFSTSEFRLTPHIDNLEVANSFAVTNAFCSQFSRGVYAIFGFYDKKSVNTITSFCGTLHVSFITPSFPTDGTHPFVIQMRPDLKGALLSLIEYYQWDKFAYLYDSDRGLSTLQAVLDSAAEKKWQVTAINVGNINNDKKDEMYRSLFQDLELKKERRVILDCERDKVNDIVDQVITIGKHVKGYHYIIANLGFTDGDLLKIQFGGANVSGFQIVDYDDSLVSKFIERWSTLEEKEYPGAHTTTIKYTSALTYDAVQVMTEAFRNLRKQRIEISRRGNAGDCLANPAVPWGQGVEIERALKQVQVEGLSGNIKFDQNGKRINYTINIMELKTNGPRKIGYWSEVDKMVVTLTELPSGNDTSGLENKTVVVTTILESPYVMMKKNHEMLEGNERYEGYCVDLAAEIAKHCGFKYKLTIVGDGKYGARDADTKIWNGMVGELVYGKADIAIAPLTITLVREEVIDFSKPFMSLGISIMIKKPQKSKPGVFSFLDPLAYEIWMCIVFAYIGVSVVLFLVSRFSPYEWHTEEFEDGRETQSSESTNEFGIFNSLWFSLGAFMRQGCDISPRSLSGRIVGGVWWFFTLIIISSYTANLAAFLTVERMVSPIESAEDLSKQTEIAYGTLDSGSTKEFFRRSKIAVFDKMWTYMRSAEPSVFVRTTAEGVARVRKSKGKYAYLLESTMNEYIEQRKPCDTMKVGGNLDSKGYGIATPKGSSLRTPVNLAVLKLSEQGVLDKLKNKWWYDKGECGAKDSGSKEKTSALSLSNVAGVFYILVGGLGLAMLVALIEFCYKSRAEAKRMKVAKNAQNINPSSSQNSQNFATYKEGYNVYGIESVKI
GluA2flip(R)-stargazin (A2R-stg TetON HEK293 cells), sequence (Q9Y698 whole entry partner): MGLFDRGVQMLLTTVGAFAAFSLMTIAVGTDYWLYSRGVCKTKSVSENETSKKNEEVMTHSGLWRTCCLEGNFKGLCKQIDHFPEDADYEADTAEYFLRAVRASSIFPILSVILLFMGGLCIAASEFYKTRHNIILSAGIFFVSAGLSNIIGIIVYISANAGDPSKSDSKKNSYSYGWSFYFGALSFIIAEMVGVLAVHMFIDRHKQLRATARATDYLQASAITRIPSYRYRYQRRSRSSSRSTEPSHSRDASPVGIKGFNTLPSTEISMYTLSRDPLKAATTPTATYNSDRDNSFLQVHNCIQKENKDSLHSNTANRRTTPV
GluA2flip(R)-CNIH3 (A2R-C3 TetON HEK293 cells), sequence (P42262 25-883 isoform P42262-2 Q607R limits assumed): as the sequence (P42262 25-883 isoform P42262-2 Q607R limits assumed) above
GluA2flip(R)-CNIH3 (A2R-C3 TetON HEK293 cells), sequence (Q8TBE1 whole entry partner): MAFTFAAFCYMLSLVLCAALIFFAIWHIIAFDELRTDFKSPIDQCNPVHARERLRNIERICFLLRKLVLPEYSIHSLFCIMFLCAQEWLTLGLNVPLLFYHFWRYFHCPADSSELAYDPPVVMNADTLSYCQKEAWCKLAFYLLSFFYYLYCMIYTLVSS
GluA2flip(Q)-GSG1L (A2Q-GSG cells), sequence (P42262 25-883 isoform P42262-2 limits assumed): as the sequence (P42262 25-883 isoform P42262-2 Q607R limits assumed) above, with R583Q counted along it
GluA2flip(Q)-GSG1L (A2Q-GSG cells), sequence (Q6UXU4 whole entry partner): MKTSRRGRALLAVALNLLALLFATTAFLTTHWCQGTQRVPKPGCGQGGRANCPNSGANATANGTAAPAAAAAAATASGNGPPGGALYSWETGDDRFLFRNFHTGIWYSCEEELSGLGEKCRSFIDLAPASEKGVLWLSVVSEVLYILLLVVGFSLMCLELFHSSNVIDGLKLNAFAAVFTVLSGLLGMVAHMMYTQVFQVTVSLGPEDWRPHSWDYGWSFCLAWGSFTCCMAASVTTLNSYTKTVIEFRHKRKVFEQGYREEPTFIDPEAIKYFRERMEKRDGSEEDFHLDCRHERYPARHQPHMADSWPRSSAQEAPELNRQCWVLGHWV
T1 sequence (P42262 25-883 isoform P42262-2 limits assumed): as the sequence (P42262 25-883 isoform P42262-2 Q607R limits assumed) above, with R583Q counted along it
GluA2flip(Q)-CNIH3 (A2Q-C3 cells), sequence (P42262 25-883 isoform P42262-2 limits assumed): as the sequence (P42262 25-883 isoform P42262-2 Q607R limits assumed) above, with R583Q counted along it
GluA2flip(Q)-CNIH3 (A2Q-C3 cells), sequence (Q8TBE1 whole entry partner): as the sequence (Q8TBE1 whole entry partner) above

NS(=O)(=O)c1cc2c(cc1Cl)NC(C1CC3C=CC1C3)NS2(=O)=O (stereo not shown) [CTZ, cyclothiazide]
EC50 [1]: 2.2 µM
EC50 [2]: 1.6 µM
EC50 [3]: 0.9 µM
CMPDmaxmin ([3]; 1.95313e-6 M): 0.01995 and 0.02197 and 0.02343 and 0.0204 and 0.02099
BaselineReturn ([3]; 3.90625e-6 M): 0.01694 and 0.02593 and 0.02261 and 0.02289 and 0.01533 and 0.01439
CMPDmaxmin ([3]; 3.90625e-6 M): 0.02654 and 0.02518 and 0.0211 and 0.01857
BaselineReturn ([3]; 7.8125e-6 M): 0.02783 and 0.02662 and 0.0353 and 0.03259 and 0.02886 and 0.02588
CMPDmaxmin ([3]; 7.8125e-6 M): 0.0268 and 0.03115 and 0.03117 and 0.04146 and 0.02344 and 0.0309
Glumaxmin ([3]; 7.8125e-6 M): 0.1527 and 0.1804 and 0.2045 and 0.2207
GluSlope ([3]; 7.8125e-6 M): 1.356e-5 and 1.3e-5 and 1.265e-5 and 1.674e-5 and 1.689e-5 and 1.461e-5
CMPDmaxmin ([3]; 1.5625e-5 M): 0.03354 and 0.03952 and 0.05587 and 0.04086 and 0.03876 and 0.03573
Glumaxmin ([3]; 1.5625e-5 M): 0.2558 and 0.3432 and 0.3162 and 0.3337
GluSlope ([3]; 1.5625e-5 M): 1.634e-5 and 1.622e-5 and 1.53e-5 and 2.233e-5 and 2.059e-5 and 2.204e-5
BaselineReturn ([3]; 3.125e-5 M): 0.0693 and 0.04071 and 0.04552 and 0.04058 and 0.03606 and 0.0477
CMPDmaxmin ([3]; 3.125e-5 M): 0.05834 and 0.04067 and 0.04238 and 0.04539 and 0.03379 and 0.04106
Glumaxmin ([3]; 3.125e-5 M): 0.4026 and 0.4044 and 0.3672 and 0.4286 and 0.4072
CMPDmaxmin ([3]; 6.25e-5 M): 0.04424 and 0.05275 and 0.04401 and 0.03573 and 0.03351 and 0.03343
Glumaxmin ([3]; 6.25e-5 M): 0.4053 and 0.4064 and 0.4608 and 0.469 and 0.4686 and 0.4908
GluSlope ([3]; 6.25e-5 M): 1.974e-5 and 2.267e-5 and 2.556e-5 and 2.473e-5 and 2.4778e-5 and 2.559e-5
CMPDmaxmin ([3]; 0.00025 M): 0.0338 and 0.0291 and 0.02948 and 0.02774 and 0.02398 and 0.02262
Glumaxmin ([3]; 0.00025 M): 0.4981 and 0.5117 and 0.5708 and 0.5208 and 0.5482 and 0.5112
GluSlope ([3]; 0.00025 M): 2.302e-5 and 2.432e-5 and 2.511e-5 and 2.509e-5 and 2.863e-5 and 2.554e-5
CMPDmaxmin ([3]; 0.0005 M): 0.04815 and 0.05143 and 0.02949 and 0.04218 and 0.05076 and 0.0521
Glumaxmin ([3]; 0.0005 M): 0.4797 and 0.5039 and 0.3566 and 0.5216 and 0.4987 and 0.5435
GluSlope ([3]; 0.0005 M): 2.0723e-5 and 2.479e-5 and 1.376e-5 and 2.232e-5 and 2.492e-5 and 2.656e-5
activity at 250 µM ([3]; HEK293, read-out: AVE %MAXCMPDslope, 0.00025 M, average of wells): 28.2%
activity at 500 µM ([3]; HEK293, read-out: AVE %MAXCMPDslope, 0.0005 M, average of wells): 27.5%
activity at […] ([3]; HEK293, read-out: AVE %MAXCMPDslope, […], average of wells): 29%
activity at 250 µM ([3]; HEK293, read-out: AVE %MAXslope, 0.00025 M, average of wells): 71.3%
activity at 500 µM ([3]; HEK293, read-out: AVE %MAXslope, 0.0005 M, average of wells): 65.9%
activity at […] ([3]; HEK293, read-out: AVE %MAXslope, […], average of wells): 68.4%
activity at 250 µM ([3]; HEK293, read-out: pctMAX, 0.00025 M, Glumaxmin as percentage MAX (vhl and glutamate controls)): 55.4%
activity at […] ([3]; HEK293, read-out: pctMAX, […], Glumaxmin as percentage MAX (vhl and glutamate controls)): 44.5%
activity at 250 µM ([3]; HEK293, read-out: pctMAXslope, 0.00025 M, GluSlope as percentage MAX): 67.4%
activity at […] ([3]; HEK293, read-out: pctMAXslope, […], GluSlope as percentage MAX): 64.2%
activity at 250 µM ([3]; HEK293, read-out: pctMAXslopeCMPD, 0.00025 M, CMPDSlope as percentage MAX): 27.7%
activity at 500 µM ([3]; HEK293, read-out: pctMAXslopeCMPD, 0.0005 M, CMPDSlope as percentage MAX): 26.2%
activity at […] ([3]; HEK293, read-out: pctMAXslopeCMPD, […], CMPDSlope as percentage MAX): 28.9%
EC50 [4]: 0.8 µM
CMPDmaxmin ([4]; 1.95313e-6 M ligand, compound only, per well): 0.02498 and 0.01841 and 0.01791 and 0.02774
CMPDmaxmin ([4]; 3.90625e-6 M ligand, compound only, per well): 0.02327 and 0.02311 and 0.02554 and 0.02077
GluSlope ([4]; 3.90625e-6 M ligand, slope of normalized value 310-315 s, compound+glutamate, per well): 3.655e-6 and 4.544e-6 and 4.211e-6 and 5.143e-6 and 7.279e-6 and 5.643e-6
BaselineReturn ([4]; 7.8125e-6 M ligand, per well): 0.02655 and 0.02476
CMPDmaxmin ([4]; 7.8125e-6 M ligand, compound only, per well): 0.03133 and 0.03273
Glumaxmin ([4]; 7.8125e-6 M ligand, compound+glutamate, per well): 0.1051 and 0.1531
GluSlope ([4]; 7.8125e-6 M ligand, slope of normalized value 310-315 s, compound+glutamate, per well): 1.084e-5 and 1.388e-5
BaselineReturn ([4]; 7.8125e-6 M, per well): 0.01945 and 0.0284 and 0.03375 and 0.02763
CMPDmaxmin ([4]; 7.8125e-6 M, only compound present, per well): 0.02499 and 0.03299 and 0.03909 and 0.04405
Glumaxmin ([4]; 7.8125e-6 M, compound and glutamate present, per well): 0.1519 and 0.1861 and 0.161 and 0.1533
GluSlope ([4]; 7.8125e-6 M, slope 310-315 s, compound and glutamate present, per well): 1.427e-5 and 1.51e-5 and 1.46e-5 and 1.177e-5
BaselineReturn ([4]; 1.5625e-5 M, per well): 0.04439 and 0.04696 and 0.04628 and 0.04829 and 0.04336 and 0.0478
CMPDmaxmin ([4]; 1.5625e-5 M, only compound present, per well): 0.04028 and 0.05159 and 0.051 and 0.04736 and 0.04942 and 0.04289
Glumaxmin ([4]; 1.5625e-5 M, compound and glutamate present, per well): 0.222 and 0.2669 and 0.2275
GluSlope ([4]; 1.5625e-5 M, slope 310-315 s, compound and glutamate present, per well): 1.982e-5 and 1.758e-5 and 1.735e-5 and 2.35e-5 and 2.196e-5 and 2.323e-5
Glumaxmin ([4]; 3.125e-5 M, compound and glutamate present, per well): 0.3443 and 0.3512 and 0.3188 and 0.318 and 0.3671
GluSlope ([4]; 3.125e-5 M, slope 310-315 s, compound and glutamate present, per well): 2.5659e-5 and 2.5089e-5 and 2.398e-5 and 2.252e-5 and 2.824e-5 and 2.481e-5
BaselineReturn ([4]; 6.25e-5 M, per well): 0.06773 and 0.07885 and 0.0633 and 0.06912 and 0.08153 and 0.08744
CMPDmaxmin ([4]; 6.25e-5 M, only compound present, per well): 0.07201 and 0.07489 and 0.07237 and 0.06864 and 0.0824 and 0.08958
Glumaxmin ([4]; 6.25e-5 M, compound and glutamate present, per well): 0.3694 and 0.3861 and 0.381 and 0.3994 and 0.4282 and 0.4362
GluSlope ([4]; 6.25e-5 M, slope 310-315 s, compound and glutamate present, per well): 2.565e-5 and 2.689e-5 and 2.837e-5 and 2.784e-5 and 3.091e-5 and 2.855e-5
CMPDmaxmin ([4]; 0.00025 M, only compound present, per well): 0.06294 and 0.04965 and 0.05528 and 0.07959 and 0.04247 and 0.05305
Glumaxmin ([4]; 0.0005 M, compound and glutamate present, per well): 0.4488 and 0.457 and 0.483 and 0.5352 and 0.5162 and 0.5252
GluSlope ([4]; 0.0005 M, slope 310-315 s, compound and glutamate present, per well): 2.6241e-5 and 2.3366e-5 and 3.012e-5 and 2.914e-5 and 2.692e-5 and 2.648e-5
activity at 250 µM ([4]; HEK293, read-out: AVE %MAXCMPDslope, 0.00025 M, average for the concentration): 20.3%
activity at 500 µM ([4]; HEK293, read-out: AVE %MAXCMPDslope, 0.0005 M, average for the concentration): 20.7%
activity at […] ([4]; HEK293, read-out: AVE %MAXCMPDslope, […], average for the concentration): 19.2%
activity at 250 µM ([4]; HEK293, read-out: AVE %MAXslope, 0.00025 M, average for the concentration): 68.1%
activity at […] ([4]; HEK293, read-out: AVE %MAXslope, […], average for the concentration): 63.8%
activity at 500 µM ([4]; HEK293, read-out: pctMAX, 0.0005 M, Glumaxmin vs vhl and glutamate controls, per well): 57.7%
activity at 500 µM ([4]; HEK293, read-out: pctMAXslope, 0.0005 M, GluSlope vs vhl and glutamate controls, per well): 67.5%
activity at 250 µM ([4]; HEK293, read-out: pctMAXslopeCMPD, 0.00025 M, CMPDSlope vs vhl and glutamate controls, per well): 18.6%
activity at 500 µM ([4]; HEK293, read-out: pctMAXslopeCMPD, 0.0005 M, CMPDSlope vs vhl and glutamate controls, per well): 18.6%
activity at […] ([4]; HEK293, read-out: pctMAXslopeCMPD, […], CMPDSlope vs vhl and glutamate controls, per well): 19.3%
EC50 [5]: 1.9 µM
EC50 [6]: 0.4 µM
EC50 [7]: 2 µM
